“And” between values parts separate entries of the source, which are not always exact repeats. Equal values may be shown once.
Key:
Assay in all cases: Cell assay (liposome/EV binding, flow cytometry);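 as to liposome binding, fluorescence signal (replicates): AF647 fluorescence intensity from 0.1 mol% AF647–PEG45–DSPE in liposomes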
Format in all cases: cell-based
WT Siglec-6 CHO cells = biological target: T1, WT Siglec-6 CHO cells (Homo sapiens, UniProt O43699); conditions: for log10(MFI AF647) of GLL relative to log10(MFI AF647) of the same GLL against UT CHO cells (Fig. 2a): Sig-6 WT, 3 mol% ganglioside liposomes; for Binding of liposomes to WT Siglec-6 CHO cells relative to liposomes formulated without a ligand (Fig. 3c): 3 mol% glycolipid, Cer = native ganglioside, Amide = amide-linked nGL;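 as to liposome binding, fluorescence signal (replicates): AF647 fluorescence intensity from 0.1 mol% AF647–PEG45–DSPE in liposomes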
T1 construct: expressed in transfected cells
T1 sequence (O43699 27-453): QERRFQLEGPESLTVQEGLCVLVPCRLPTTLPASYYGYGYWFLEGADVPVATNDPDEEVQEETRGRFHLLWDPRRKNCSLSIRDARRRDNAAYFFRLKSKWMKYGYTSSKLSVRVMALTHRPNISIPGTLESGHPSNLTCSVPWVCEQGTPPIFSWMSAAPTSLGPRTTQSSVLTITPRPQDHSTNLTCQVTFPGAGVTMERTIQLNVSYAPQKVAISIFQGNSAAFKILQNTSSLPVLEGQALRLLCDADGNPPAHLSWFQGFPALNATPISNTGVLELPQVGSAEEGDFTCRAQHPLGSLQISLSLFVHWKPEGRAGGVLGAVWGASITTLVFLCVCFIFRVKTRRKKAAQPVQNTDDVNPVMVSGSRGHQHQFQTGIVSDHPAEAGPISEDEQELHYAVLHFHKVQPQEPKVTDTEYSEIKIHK
Method in brief: (§1)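 Extruded PEGylated DSPC/cholesterol liposomes (100 nm filter; 130 ± 35 nm) bearing Siglec ligand and AF647 lipids. Cells + 50 µM liposome or 50 µg/mL EV, DMEM F12/5% FBS, 37 °C, 30 min; washed; anti-Siglec 1:250, ice 30 min; flow, Siglec+ gate.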

Siglec-15 WT CHO cells = biological target: T2, Siglec-15 WT CHO cells (Homo sapiens, UniProt Q6ZMC9, K274L); conditions: Sig-15 WT; 3 mol% ganglioside liposomes; replicates
T2 construct: expressed in transfected cells
T2 sequence (Q6ZMC9 20-328 K274L): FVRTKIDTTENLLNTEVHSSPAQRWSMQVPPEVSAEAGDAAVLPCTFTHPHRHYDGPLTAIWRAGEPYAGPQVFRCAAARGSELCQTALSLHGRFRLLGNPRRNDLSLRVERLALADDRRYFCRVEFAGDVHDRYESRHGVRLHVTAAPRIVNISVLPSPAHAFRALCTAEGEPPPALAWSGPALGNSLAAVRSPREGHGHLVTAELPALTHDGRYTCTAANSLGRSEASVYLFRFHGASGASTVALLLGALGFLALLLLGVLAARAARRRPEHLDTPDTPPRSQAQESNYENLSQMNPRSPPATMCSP
Method in brief: (§2)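 Binding of AF647-labelled, Siglec ligand-bearing liposomes (130 ± 35 nm) or EVs was measured on transfected CHO cells. Exposure was 50 µM or 50 µg/mL for 30 min at 37 °C; Siglec-positive cells were gated for analysis.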

CD22 R120A CHO cells = biological target: T3, CD22 R120A CHO cells (Homo sapiens, UniProt P20273, R120A); conditions: 3 mol% ganglioside liposomes, replicates
T3 construct: expressed in transfected cells
T3 sequence (P20273 20-847 R120A): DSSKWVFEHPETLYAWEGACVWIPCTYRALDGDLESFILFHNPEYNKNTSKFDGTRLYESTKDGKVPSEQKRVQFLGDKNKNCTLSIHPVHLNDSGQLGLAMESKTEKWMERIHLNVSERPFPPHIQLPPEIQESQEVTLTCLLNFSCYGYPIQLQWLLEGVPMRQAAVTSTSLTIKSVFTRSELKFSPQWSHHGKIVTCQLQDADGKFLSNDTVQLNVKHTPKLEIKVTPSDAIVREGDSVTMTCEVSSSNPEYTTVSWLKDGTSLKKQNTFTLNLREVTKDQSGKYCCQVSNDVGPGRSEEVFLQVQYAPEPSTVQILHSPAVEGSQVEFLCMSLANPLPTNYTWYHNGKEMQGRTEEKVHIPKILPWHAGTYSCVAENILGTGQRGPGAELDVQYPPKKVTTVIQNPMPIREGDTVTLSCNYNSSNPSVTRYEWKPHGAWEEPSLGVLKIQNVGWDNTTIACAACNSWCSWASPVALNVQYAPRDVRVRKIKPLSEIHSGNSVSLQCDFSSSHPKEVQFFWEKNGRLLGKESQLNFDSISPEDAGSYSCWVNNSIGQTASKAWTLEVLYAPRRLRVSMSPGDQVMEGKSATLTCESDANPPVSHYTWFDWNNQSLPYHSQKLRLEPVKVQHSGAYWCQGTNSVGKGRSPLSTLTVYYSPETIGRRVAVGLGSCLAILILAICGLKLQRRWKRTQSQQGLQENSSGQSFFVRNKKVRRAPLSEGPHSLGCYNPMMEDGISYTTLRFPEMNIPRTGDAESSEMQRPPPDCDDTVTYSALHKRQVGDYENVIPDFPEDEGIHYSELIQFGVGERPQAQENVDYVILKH
Method in brief: as §2

Siglec-11 WT CHO cells = biological target: T4, Siglec-11 WT CHO cells (Homo sapiens, UniProt Q96RL6); conditions: Sig-11 WT; 3 mol% ganglioside liposomes; replicates
T4 construct: expressed in transfected cells
T4 sequence (Q96RL6 28-698): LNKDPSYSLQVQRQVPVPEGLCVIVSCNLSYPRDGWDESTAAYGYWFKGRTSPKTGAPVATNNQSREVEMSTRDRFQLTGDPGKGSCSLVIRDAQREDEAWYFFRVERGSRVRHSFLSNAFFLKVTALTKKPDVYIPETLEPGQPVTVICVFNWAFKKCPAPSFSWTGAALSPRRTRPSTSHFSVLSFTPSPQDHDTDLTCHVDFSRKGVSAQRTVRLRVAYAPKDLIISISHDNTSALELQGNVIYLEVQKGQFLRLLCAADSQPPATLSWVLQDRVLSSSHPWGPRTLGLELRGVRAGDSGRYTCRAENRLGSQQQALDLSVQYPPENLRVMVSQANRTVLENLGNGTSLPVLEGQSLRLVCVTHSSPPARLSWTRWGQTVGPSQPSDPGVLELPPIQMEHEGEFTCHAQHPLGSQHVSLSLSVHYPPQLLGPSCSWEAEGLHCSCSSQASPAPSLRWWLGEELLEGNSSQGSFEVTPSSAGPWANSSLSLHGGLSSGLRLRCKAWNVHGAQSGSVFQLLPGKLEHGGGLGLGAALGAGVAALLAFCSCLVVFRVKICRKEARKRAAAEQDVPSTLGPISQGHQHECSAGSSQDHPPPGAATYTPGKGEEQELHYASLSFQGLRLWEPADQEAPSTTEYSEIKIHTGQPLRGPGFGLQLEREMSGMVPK
Method in brief: as §1

[1] = sheet Figure S17, cells not given, three experiments, each with its own Naked control

Molecule | log10(MFI AF647) of GLL relative to log10(MFI AF647) of the same GLL against UT CHO cells (Fig. 2a) (Siglec-15 WT CHO cells) | log10(MFI AF647) of GLL relative to log10(MFI AF647) of the same GLL against UT CHO cells (Fig. 2a) (WT Siglec-6 CHO cells; replicates) | log10(MFI AF647) of GLL relative to log10(MFI AF647) of the same GLL against UT CHO cells (Fig. 2a) (CD22 R120A CHO cells) | log10(MFI AF647) of GLL relative to log10(MFI AF647) of the same GLL against UT CHO cells (Fig. 2a) (Siglec-11 WT CHO cells) | further results
CCCCCCCCCCCCCCCCOCC(COCCCCCCCCCCCCCCCC)OCc1cn(CCO[C@@H]2O[C@H](CO)[C@@H](O[C@@H]3O[C@H](CO)[C@H](O)[C@H](O[C@]4(C(=O)O)C[C@H](O)[C@@H](NC(C)=O)[C@H]([C@H](O)[C@H](O)CO)O4)[C@H]3O)[C@H](O)[C@H]2O)nn1 [GM3-DAG] |  |  |  |  | liposome binding, fluorescence signal (replicates) (WT Siglec-6 CHO cells; sheet Figure S22b, Sig-6): 1899 and 2014 and 1894 and 1967; liposome binding, fluorescence signal (replicates) (WT Siglec-6 CHO cells; sheet Figure S26a, 3% GM3-DAG liposomes, WT): 5874 and 5544 and 5060 and 6703; liposome binding, fluorescence signal (replicates) (WT Siglec-6 CHO cells; sheet Figure S28b, 3% GM3-DAG liposomes, WT): 2153 and 2258 and 2285 and 2102; liposome binding, fluorescence signal (replicates) (WT Siglec-6 CHO cells; sheet Figure S26d, WT): 1302 and 879 and 1034 and 1211
CCCCCCCCCCCCCCCCOCC(COCCCCCCCCCCCCCCCC)OCc1cn(CCO[C@@H]2O[C@H](CO)[C@@H](O[C@@H]3O[C@H](CO)[C@H](O)[C@H](O[C@]4(C(=O)O)C[C@H](O)[C@@H](NC(C)=O)[C@H]([C@H](O)[C@H](O)CO)O4)[C@H]3O)[C@H](O)[C@H]2O)nn1 [nGL 5] |  |  |  |  | nGLL binding to WT Siglec-6 CHO cells (in words) (WT Siglec-6 CHO cells; 3 mol% nGL in liposomes): relatively high binding; Binding of nGL liposomes to WT Siglec-6 CHO cells relative to naked liposomes (Fig. 3e) (WT Siglec-6 CHO cells; 3 mol% nGL, replicates): 13.1 and 10.8 and 11.4 and 14; Binding of nGL liposomes relative to liposomes formulated with 3 mol% nGL 5 (Fig. 3g) (WT Siglec-6 CHO cells; WT Siglec-6 CHO cells, 3 mol% nGL, replicates): 0.93 and 1.01 and 1.13; fold difference in binding to Siglec-6 between 5 and GM3 (WT Siglec-6 CHO cells; cell assay (liposomal display)): 34 fold; liposome binding, fluorescence signal (replicates) (WT Siglec-6 CHO cells; [1]): 3983 and 3299 and 3469 and 4281; liposome binding, fluorescence signal (replicates) (WT Siglec-6 CHO cells; sheet Figure S18a, cells not given): 2909 and 2902 and 3112 and 3410; optimal content of 5 in liposomes for engaging Siglec-6 (WT Siglec-6 CHO cells; titration in cell assay and bead assay): 5 mol%
GD1a | -0.08 and -0.06 and -0.07 (2×) | 0.57 (2×) and 0.56 (2×) | 0.09 and 0.1 and 0.05 and 0.08 | -0.11 (2×) and -0.07 and -0.09 | 
GD1b | -0.14 (2×) and -0.12 (2×) | 0.23 and 0.21 (2×) and 0.22 | 0.03 and 0.02 and -0.01 and 0.01 | -0.1 (3×) and -0.09 | 
GD3 | -0.02 and -0.01 and 0 and -0.03 | 0.91 and 0.9 (2×) and 0.88 | 0.09 and 0.1 (2×) and 0.11 | -0.13 and -0.11 and -0.09 (2×) | 
GM1 | -0.21 and -0.2 and -0.17 (2×) | 0.96 and 0.93 and 0.94 (2×) | 0.06 and 0.04 and -0.02 and 0.03 | 0.11 and 0.12 and 0.14 and 0.13 | Binding of liposomes to WT Siglec-6 CHO cells relative to liposomes formulated without a ligand (Fig. 3c) (WT Siglec-6 CHO cells; replicates, listed as GM1 Cer): 10 and 9.9 and 11 and 10.2; GLL binding to Siglec-6 with increasing ganglioside content (in words) (WT Siglec-6 CHO cells; ganglioside titrated in GLLs): decreased above an optimal ganglioside content; liposome binding, fluorescence signal (replicates) (WT Siglec-6 CHO cells; [1]): 2111 and 2091 and 2310 and 2148
GM2 | -0.07 and -0.05 and -0.03 (2×) | 0.03 (2×) and 0.04 and 0.06 | 0.1 (2×) and 0.12 and 0.08 | -0.06 and -0.03 (2×) and -0.04 | 
GM3 | -0.12 and -0.09 (2×) and -0.1 | -0.2 (2×) and -0.19 and -0.17 | -0.15 and -0.16 and -0.17 and -0.18 | -0.1 and -0.09 and -0.11 and -0.12 | Binding of liposomes to WT Siglec-6 CHO cells relative to liposomes formulated without a ligand (Fig. 3c) (WT Siglec-6 CHO cells; replicates, listed as GM3 Cer): 0.344 and 0.335 and 0.365 and 0.403; liposome binding, fluorescence signal (replicates) (WT Siglec-6 CHO cells; [1]): 274 and 267 and 291 and 321
GM4 | -0.1 and -0.08 (2×) and -0.07 | 0.02 (2×) and 0.05 and 0.04 | 0.11 and 0.12 and 0.09 and 0.1 | -0.11 and -0.09 (2×) and -0.07 | 
GQ1b | -0.13 and -0.12 (2×) and -0.17 | 0.57 and 0.55 and 0.54 and 0.56 | -0.05 and -0.03 and -0.04 and -0.06 | -0.25 and -0.21 and -0.2 and -0.24 | 
GT1b | -0.04 (3×) and -0.01 | 0.81 and 0.79 and 0.8 (2×) | 0.05 and 0.04 (2×) and 0.06 | -0.17 and -0.15 and -0.13 (2×) | 

Reference: article PMC10122656, “Siglec-6 mediates the uptake of extracellular vesicles through a noncanonical glycolipid binding pocket” (Nature Communications, 2023)
